Drawing on PubChem BioAssay (NCI), this text covers TGI for eleven compounds.

SMILES strings stand for the structures.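 Results reflect a 48-hour exposure of cells in 96-well plates to compound at five concentrations. TGI denotes the concentration required for complete inhibition of growth.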 A value given as a limit tells only on which side of the number the result lay.

Among the test systems are NCI-H460 lung; OVCAR-4 ovarian; MDA-MB-231 breast; CCRF-CEM leukemia; HT29 colon; OVCAR-8 ovarian; SK-OV-3 ovarian; MCF7 breast; SNB-19 CNS; HCC-2998 colon; SF-539 CNS; PC-3 prostate.
Common to all, as to test: growth of human tumour cells (NCI), 48 h

As to `COC(=O)C1=NN2c3ccccc3CN([C@@H](C)c3ccccc3)C(=O)[C@@H]2[C@H]1c1ccccc1`, the TGI with NCI-H460 lung, with OVCAR-4 ovarian, in the experiment with MDA-MB-231 breast, in the experiment on CCRF-CEM leukemia, with HT29 colon and in the experiment with OVCAR-8 ovarian was over 100 µM throughout. The TGI in the experiment with SK-OV-3 ovarian, in the experiment on MCF7 breast, in the experiment with SNB-19 CNS, with HCC-2998 colon, in the experiment on SF-539 CNS and in the experiment with PC-3 prostate was over 100 µM in each case.
For `COC1CC(O[C@H]2CC[C@@]3(C)[C@@H](CC[C@]4(O)[C@@H]3CC[C@]3(C)[C@@H](C(C)=O)[C@H](OC(=O)CC(C)C)[C@@H](OC(=O)c5ccccc5)[C@@]34O)C2)OC(C)C1OC1CC(OC)C(OC2OC(C)C(O)C(OC)C2O)C(C)O1` (some centres not stated), the TGI in the experiment on NCI-H460 lung, with OVCAR-4 ovarian, in the experiment with MDA-MB-231 breast, with CCRF-CEM leukemia, with HT29 colon and in the experiment on OVCAR-8 ovarian was over 25 µM each time. Also, the TGI with SK-OV-3 ovarian, in the experiment with MCF7 breast, with SNB-19 CNS, in the experiment on HCC-2998 colon, with SF-539 CNS and in the experiment on PC-3 prostate was over 25 µM each time.
Consider `CC[C@H](C)[C@H](NC(=O)[C@@]1(O)[C@H](O)[C@]2(CC)C=CCN3CC[C@@]4(c5cc(Br)c(OC)cc5N(C)[C@@H]14)[C@@H]32)C(=O)OC`, for which the TGI with NCI-H460 lung is over 100 µM; in the experiment with OVCAR-4 ovarian it was 50 µM; with MDA-MB-231 breast, 46.5 µM; in the experiment on CCRF-CEM leukemia it was 67.3 µM; in the experiment with HT29 colon, 30.5 µM; in the experiment with OVCAR-8 ovarian, over 100 µM. In addition, the TGI is over 100 µM with SK-OV-3 ovarian; over 100 µM with MCF7 breast; over 100 µM in the experiment on SNB-19 CNS; 87.7 µM in the experiment with HCC-2998 colon; 91.3 µM in the experiment with SF-539 CNS; over 100 µM in the experiment with PC-3 prostate.
Take `c1ccc([P+](CCCCCC[P+](c2ccccc2)(c2ccccc2)c2ccccc2)(c2ccccc2)c2ccccc2)cc1`: the TGI with NCI-H460 lung was over 100 µM; with OVCAR-4 ovarian it was over 100 µM; in the experiment with MDA-MB-231 breast it was over 100 µM; in the experiment on CCRF-CEM leukemia, over 100 µM; with HT29 colon, over 100 µM; in the experiment on OVCAR-8 ovarian it was 71.2 µM. Besides, the TGI in the experiment with SK-OV-3 ovarian was over 100 µM; in the experiment on MCF7 breast, 74.1 µM; in the experiment on SNB-19 CNS, over 100 µM; in the experiment with HCC-2998 colon, over 100 µM; with SF-539 CNS, 39 µM; in the experiment with PC-3 prostate it was over 100 µM.
Turning to `N#Cc1c(N2CCN(c3ccc([N+](=O)[O-])cc3)CC2)[n+](=O)c2ccccc2n1[O-]`, the TGI in the experiment with NCI-H460 lung, with OVCAR-4 ovarian, with MDA-MB-231 breast, in the experiment with CCRF-CEM leukemia, with HT29 colon and in the experiment on OVCAR-8 ovarian was over 100 µM in each case. Also, the TGI in the experiment with SK-OV-3 ovarian, in the experiment with MCF7 breast, in the experiment with SNB-19 CNS, with HCC-2998 colon, in the experiment on SF-539 CNS and in the experiment on PC-3 prostate was over 100 µM in each case.
With `CC1=CCC2CC1NC(=O)CCOCCC(=O)NC2(C)C` (configuration not stated), the TGI in the experiment on NCI-H460 lung, in the experiment on OVCAR-4 ovarian, in the experiment on MDA-MB-231 breast, in the experiment on CCRF-CEM leukemia, in the experiment with HT29 colon and in the experiment with OVCAR-8 ovarian was over 100 µM throughout. In addition, the TGI in the experiment on SK-OV-3 ovarian, in the experiment with MCF7 breast, in the experiment with SNB-19 CNS, with HCC-2998 colon, in the experiment with SF-539 CNS and in the experiment with PC-3 prostate was over 100 µM each time.
As to `O=C1/C(=C/c2ccc(Cl)cc2)CSC/C1=C\c1ccc(Cl)cc1`, the TGI worked out at 30.5 µM in the experiment on NCI-H460 lung; 14.1 µM in the experiment with OVCAR-4 ovarian; 27.2 µM in the experiment with MDA-MB-231 breast; 63.9 µM in the experiment on CCRF-CEM leukemia; 4.81 µM with HT29 colon; 13.8 µM with OVCAR-8 ovarian. In addition, the TGI stood at 16.5 µM with SK-OV-3 ovarian; 13.1 µM in the experiment with MCF7 breast; 17 µM in the experiment on SNB-19 CNS; 4.09 µM in the experiment on HCC-2998 colon; 9.26 µM with SF-539 CNS; 16 µM with PC-3 prostate.
Take `CCCCCCCCOC(=O)c1cc([N+](=O)[O-])c(Sc2ncnc3nc[nH]c23)c([N+](=O)[O-])c1`: the TGI is 17.4 µM with NCI-H460 lung; 13.5 µM with OVCAR-4 ovarian; over 31.6 µM in the experiment on MDA-MB-231 breast; 2.68 µM in the experiment with CCRF-CEM leukemia; 4.87 µM in the experiment on HT29 colon; 10.1 µM in the experiment on OVCAR-8 ovarian. The TGI with SK-OV-3 ovarian is 25.3 µM; in the experiment on MCF7 breast, 12.1 µM; in the experiment on SNB-19 CNS, 32.9 µM; with HCC-2998 colon, 16.2 µM; with SF-539 CNS it was 5.8 µM; in the experiment with PC-3 prostate, 13.8 µM.
Turning to `O=c1oc2ccc3ccccc3c2cc1-c1nc2ccc([N+](=O)[O-])cc2o1`, the TGI in the experiment on NCI-H460 lung, in the experiment on OVCAR-4 ovarian, in the experiment on MDA-MB-231 breast, in the experiment with CCRF-CEM leukemia, with HT29 colon and with OVCAR-8 ovarian was over 100 µM in each case. The TGI with SK-OV-3 ovarian was over 100 µM; in the experiment on MCF7 breast it was over 31.4 µM; in the experiment on SNB-19 CNS, over 28.6 µM; in the experiment on HCC-2998 colon, over 100 µM; in the experiment with SF-539 CNS it was 26.3 µM; in the experiment on PC-3 prostate it was over 100 µM.
Regarding `CC1(C)C2CCC(O)(C2)C1N` (configuration not stated), the TGI with NCI-H460 lung, with OVCAR-4 ovarian, in the experiment on MDA-MB-231 breast, in the experiment with CCRF-CEM leukemia, in the experiment with HT29 colon and in the experiment on OVCAR-8 ovarian was over 100 µM each time. For the same compound, the TGI in the experiment on SK-OV-3 ovarian, in the experiment with MCF7 breast, in the experiment with SNB-19 CNS, in the experiment with HCC-2998 colon, in the experiment with SF-539 CNS and in the experiment with PC-3 prostate was over 100 µM throughout.
Regarding `Cc1csc(NNC(=O)Nc2ccccc2)n1`, the TGI with NCI-H460 lung, in the experiment with OVCAR-4 ovarian, with MDA-MB-231 breast, with CCRF-CEM leukemia, in the experiment with HT29 colon and in the experiment with OVCAR-8 ovarian was over 100 µM in each case. The TGI with SK-OV-3 ovarian, with MCF7 breast, in the experiment with SNB-19 CNS, in the experiment on HCC-2998 colon, with SF-539 CNS and in the experiment on PC-3 prostate was over 100 µM each time.
